From patent publication US20240207265A1, “TREATMENT OF CNS DISEASES WITH sGC STIMULATORS” (Tisento Therapeutics Inc., priority 2021, published 2024)

System: cAMP response element-binding protein (CREB)
Assay: sGC stimulator induced phosphorylation of CREB in rat primary neurons
Format: cell-based
Settings: Primary neuron, 10 μM DETA-NONOate, free acid, geometrical mean, read-out: pCREB EC50
Experimental: Neurons were isolated from Sprague Dawley rat embryos on embryonic day 18 (E18). Approximately 10 embryos were obtained from each rat, and whole brains were isolated from the embryos. Hippocampus and cortex were dissected from the brains under a stereoscopic microscope using two fine tweezers. The meninges were carefully removed. After dissection, the tissues were chopped and washed gently once with 10 mL of Ca^2+ and Mg^2+ free Hank's balanced salt solution (HBSS, Corning cat #21-022-CM) in a 15-mL conical tube. After washing, 5 mL of a solution of 0.25% trypsin (Invitrogen cat #15090-046) and 0.1% deoxyribonuclease I (DNase I, Sigma cat #DN-25) were added to the tissues, then incubated at 37° C. for 15 min. Next, tissues were washed 3 times with ice-cold HBSS, 3 mL of a solution of 0.1% of DNase I was added, then tissues were slowly pipetted 12 times using a glass Pasteur pipette, followed by centrifugation at 500×g for 10 min. […]
For each test concentration, the compound was diluted in 100% DMSO to 100× its final assay concentration. […] Medium was removed, cells were lysed and levels of pCREB was determined according to Cisbio protocols (phospho-CREB (Ser133) catalog #64CREPEG). Plates were read using Envision instrument (PerkinElmer).
pCREB was determined for each well and analyzed with a […] (log(agonist) vs. response-variable slope) using GraphPad Prism Software v.8. […]

| EC50 [nM] | SMILES |
| --- | --- |
| 21 | Cc1cc(F)c(Cc2nc(-c3ncc(F)c(O)n3)cn3ccnc23)cc1F [Compound I-14, 5-fluoro-2-(8-(2,5-difluoro-4-methylbenzyl)imidazo[1,2-a]pyrazin-6-yl)pyrimidin-4-ol] |
| 13 | Oc1nc(-c2cn3ccnc3c(Cc3cc(F)ccc3F)n2)ncc1F [Compound I-20, 5-fluoro-2-(8-(2,5-difluorobenzyl)imidazo[1,2-a]pyrazin-6-yl)pyrimidin-4-ol] |
